Assay results reported in patent US20190060249A1 (priority 2017, published 2019).

Tests used:
ALDH1A2 = target: T1, ALDH1A2 (Homo sapiens, UniProt O94788); assay: ALDH fluorescence-coupled enzymatic assay, all-trans-retinal substrate, ALDH1A2; type: biochemical
T1 sequence (O94788 1-518): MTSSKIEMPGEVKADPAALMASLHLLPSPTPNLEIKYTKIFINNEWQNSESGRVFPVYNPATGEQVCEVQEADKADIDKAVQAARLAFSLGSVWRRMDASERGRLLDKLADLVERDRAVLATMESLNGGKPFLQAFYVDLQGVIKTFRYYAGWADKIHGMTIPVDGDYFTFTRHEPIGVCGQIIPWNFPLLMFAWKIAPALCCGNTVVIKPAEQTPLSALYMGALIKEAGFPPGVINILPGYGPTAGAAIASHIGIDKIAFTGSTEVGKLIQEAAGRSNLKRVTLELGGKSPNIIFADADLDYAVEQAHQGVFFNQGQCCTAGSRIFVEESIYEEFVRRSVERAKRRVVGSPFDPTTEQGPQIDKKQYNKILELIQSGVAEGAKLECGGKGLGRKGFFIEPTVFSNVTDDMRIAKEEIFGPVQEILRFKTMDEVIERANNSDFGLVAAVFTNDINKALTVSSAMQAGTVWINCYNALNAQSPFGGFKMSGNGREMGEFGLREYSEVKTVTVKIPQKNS
Protocol: Assay conditions were modified from the original enzyme assay protocol above using 50 mM NaPPi buffer (pH 7.4), 2.5 mM NAD^+, 10 mM acetaldehyde or all-trans-retinal substrate with the addition of 1 U/mL diaphorase and 0.1 mM resazurin for the secondary reaction. Measurements were collected in triplicate at 25° C.

[1] = system: salispheres of C57BL/6 mice; assay: Organoid formation assay; type: cell-based, mouse; conditions: 25 μM Alda-341, 7 d
Protocol: Organoids, defined as having greater than or equal to 5 buds, were blindly counted and quantified as a ratio of organoid number to total number of organoids and undifferentiated spheres. 4 replicates per group. All error bars represent SEM. *=p<0.05; **=p<0.01; ***=p<0.001 (Student's t-test).
Organoid formation assay: Spheres were dissociated in 1 mg/mL dispase (BD Biosciences) for 20 minutes and resuspended in 80% collagen, 10% 10× F12, and 10% Solution C (2.2 g NaHCO3 in 100 mL of 0.05 N NaOH and 200 mM HEPES) and combined with 60% matrigel. 200 spheres per well were plated in a Millicell cell culture insert (EMD Millipore) with sphere media. Organoids defined as having greater than or equal to 5 buds formed after 2-3 d in culture and were grown for 7 d before imaging with a BZ-X710 Keyence microscope using the z-stack function. Images were stitched together into a single image and the number of differentiated organoids and undifferentiated spheres were blindly counted and quantified as a ratio of organoid number to total number of organoids and undifferentiated spheres. Experiments were repeated at least three independent times.

[2] = system: mouse model of radiation-induced hyposalivation; assay: Mouse model of radiation-induced hyposalivation; type: in vivo
From the text: In one experiment, mice were irradiated with a single dose of 15 Gy and in a second experiment with 6 Gy/d for 5 d for a total of 30 Gy. […] Starting 8 weeks after radiation, the control and treatment groups were further segmented into four groups.
On day 5 of the 30 Gy radiation dose, SMG were removed, fixed, and stained for cleaved caspase 3 to determine the extent of apoptosis (FIG. 4E).
Saliva collection: Female C57/BL-6 mice, 8-10 weeks old, were ordered from Jackson Labs. […] 15 Gy single dose or 30 Gy fractionated over 5 d (6 Gy/d) were delivered to the SMG with the rest of the body lead shielded. Stimulated saliva was measured as described in, Lombaert, I. M., Brunsting, J. F., Wierenga, P. K., Faber, H., Stokman, M. A., Kok, T., Visser, W. H., Kampinga, H. H., de Haan, G., and Coppes, R. P. (2008) Rescue of salivary gland function after stem cell transplantation in irradiated glands. PloS one 3, e2063. Mice were anesthetized with a ketamine (80 mg/kg) and xylazine (16 mg/kg) mixture delivered by intraperitoneal injection and subcutaneously injected with 2 mg/kg pilocarpine. Saliva was collected for 15 minutes. Saliva volume was calculated by assuming […] and was normalized to the mouse body weight by dividing the total collected saliva volume by the mass of the mouse (kg).
Periodic acid schiff staining and acinar quantification: SMG were removed from mice, fixed in 10% formalin for 24 h, and paraffin-embedded. 10 images per group were taken at random at 30× magnification using a Leica DM6000 B microscope. Acinar regions were quantified using RT_Image software (Graves, E. E., Quon, A., and Loo, B. W., Jr. (2007) RT_Image: an open-source tool for investigating PET in radiation oncology. Technology in cancer research & treatment 6, 111-121). Images were separated into red, green, and blue color channels, blurred using a 20 pixel box filter, and segmented using an intensity contour of 110 with a minimum area of 100 um^2. Acinar area was calculated as a percentage of acinar area relative to the area of the microscopy field.
Cleaved caspase 3 staining: SMG were removed from mice, fixed in 10% formalin for 24 h, and paraffin-embedded. Sections were stained with Caspase 3 rabbit antibody (Cell Signaling, 9664), 1:200 dilution, and DAPI. Three random images using red and blue filters were taken at 100× magnification with a Leica DM6000 B microscope from each gland (6-8 glands/group) and quantified by counting cleaved caspase-3 positive (red) cells per field.
RNA-sequencing: Samples were extracted using Qiagen miRNeasy Kit (217084). Extracted samples were assessed for quality using Agilent Pico-RNA bio-analyzer chip (5067-1513). The Smarter Ultra Low Input RNA kit (Clontech, 634848) was used to generate cDNA from total RNA. Amplified cDNA was purified using SPRI Ampure Beads from Beckman Coulter, and quality and quantity were measured using a High Sensitivity DNA chip on an Agilent 2100 Bioanalyzer. cDNA was sheared to an average length of 300 BP using a Covaris S2, and libraries were generated following the Clontech Low Input Library Prep kit (634947). Indexed libraries were pooled and quantitated for sequencing. Sequencing data was generated on an Illumina HiSeq 4000. The processed RNAseq reads were imported into BRB-ArrayTools, an integrated package for the visualization and statistical analysis of gene expression data developed by Dr. Richard Simon and BRB-ArrayTools Development Team. The imported expression values were log2-transformed and subjected to quantile normalization by Robust Multi-chip Average (RMA). Genes that show differential expression between those untreated and irradiated (univariate p-value <0.01) were selected. To identify functional networks and pathways enriched in these significant genes, these genes were analyzed using MetaCore™. For heatmap generation the Clustering function of ArrayTools was used, with experimental samples in fixed grouping and order, and genes ordered by hierarchical clustering.

[3] = EpCAM+ cells isolated from SMG 2 weeks after 30 Gy

With `C=C(C)[C@H]1CC=C(C)CC1` [Alda-341, D-limonene] the “catalytic activity of all trans-retinal in ALDH1A2” value (ALDH1A2) was “did not increase”, the “more organoids than vehicle-treated control” value [1] was 25% and the “saliva production after radiation” value ([2]; 10% Alda-341 in chow from 1 w prior to radiation and continuously after, single 15 Gy or 30 Gy (6 Gy/d for 5 d)) was “retained near baseline saliva production levels”. The “saliva production, Alda-341 stopped” value ([2]; Alda-341 from 24 h after radiation, stopped 8 weeks after radiation) was “rapid decline in saliva production”, the “saliva levels, continuous Alda-341” value ([2]; Alda-341 starting 24 h after the final dose of radiation, continuous, 20 weeks) was “sustained significantly higher saliva levels over 20 weeks” and the “saliva production, Alda-341 begun late” value ([2]; Alda-341 treatment begun 8 weeks after radiation) was “did not show significant improvement in saliva production”. For the same compound, the “apoptotic-related gene expression (RNA-sequencing)” value [2, 3] was “a decrease in apoptotic-related gene expression”, the “glutathione metabolism (RNA-sequencing)” value [2, 3] was “increased glutathione metabolism” and the “immune response (RNA-sequencing)” value [2, 3] was “decreased immune response”. The “more acinar cell preservation (PAS staining) vs group that never received Alda-341” value ([2]; after 20 weeks, continuous Alda-341) was about 70%, the “improvement in sphere-forming ability of dissociated SMG vs no treatment” value ([2]; continuous Alda-341 after radiation) was about 30 fold and the “number of apoptotic cells (cleaved caspase 3 staining)” value ([2]; day 5 of the 30 Gy radiation dose, Alda-341 before radiation) was “reduced the number of apoptotic cells to near non-irradiated levels”. The “preservation of acinar area” value ([2]; eight weeks after 30 Gy, Alda-341 from 1 w prior to radiation) was 90%.
